This is an account of results in US10562908B2, “Ortho substituted phenylpyrazolo- and phenylpyrrolo-pyridazine derivatives having multimodal activity against pain” (priority 2016, dated 2020).

Like-named read-outs stand apart in the source and are kept apart here.

The target of one experiment is T1, human μ-opioid receptor (Homo sapiens, UniProt P35372).
T1 construct: expressed in transfected cells; host or cells: CHO-K1
The experiment is described as follows: Human μ-opioid receptor radioligand assay ([3H]-DAMGO). It counts as binding. On the procedure:
Human μ-Opioid Receptor Radioligand Assay
To investigate binding properties of test compounds to human μ-opioid receptor, transfected CHO-K1 cell membranes and [^3H]-DAMGO (Perkin Elmer, ES-542-C), as the radioligand, were used. The assay was carried out with 20 μg of membrane suspension, 1 nM of [^3H]-DAMGO in either absence or presence of either buffer or 10 μM Naloxone for total and non-specific binding, respectively. Binding buffer contained Tris-HCl 50 mM, MgCl2 5 mM at pH 7.4. Plates were incubated at 27° C. for 60 minutes. After the incubation period, the reaction mix was then transferred to MultiScreen HTS, FC plates (Millipore), filtered and plates were washed 3 times with ice-cold 10 mM Tris-HCL (pH 7.4). Filters were dried and counted at approximately 40% efficiency in a MicroBeta scintillation counter (Perkin-Elmer) using EcoScint liquid scintillation cocktail, preferably, transfected CHO-K1 cell membranes (20 μg) were incubated with 1 nM of [^3H]-DAMGO in assay buffer containing Tris-HCl 50 mM, MgCl2 5 mM at pH 7.4. NBS (non-specific binding) was measured by adding 10 μM Naloxone. The binding of the test compound was measured at five different concentrations. Plates were incubated at 27° C. for 60 minutes. After the incubation period, the reaction mix was then transferred to MultiScreen HTS, FC plates (Millipore), filtered and plates were washed 3 times with ice-cold 10 mM Tris-HCL (pH 7.4). Filters were dried and counted at approximately 40% efficiency in a MicroBeta scintillation counter (Perkin-Elmer) using EcoScint liquid scintillation cocktail.

For experiment [1], the target named is Human α2δ-1 subunit of Cav2.2 calcium channel (Homo sapiens, UniProt P54289). Kind of experiment: Human α2δ-1 subunit of Cav2.2 calcium channel assay ([3H]-Gabapentin). Format: binding. On the procedure: Human α2δ-1 Subunit of Cav2.2 Calcium Channel Assay
Human α2δ-1 subunit of Cav2.2 calcium channel, sequence (P54289 25-1103): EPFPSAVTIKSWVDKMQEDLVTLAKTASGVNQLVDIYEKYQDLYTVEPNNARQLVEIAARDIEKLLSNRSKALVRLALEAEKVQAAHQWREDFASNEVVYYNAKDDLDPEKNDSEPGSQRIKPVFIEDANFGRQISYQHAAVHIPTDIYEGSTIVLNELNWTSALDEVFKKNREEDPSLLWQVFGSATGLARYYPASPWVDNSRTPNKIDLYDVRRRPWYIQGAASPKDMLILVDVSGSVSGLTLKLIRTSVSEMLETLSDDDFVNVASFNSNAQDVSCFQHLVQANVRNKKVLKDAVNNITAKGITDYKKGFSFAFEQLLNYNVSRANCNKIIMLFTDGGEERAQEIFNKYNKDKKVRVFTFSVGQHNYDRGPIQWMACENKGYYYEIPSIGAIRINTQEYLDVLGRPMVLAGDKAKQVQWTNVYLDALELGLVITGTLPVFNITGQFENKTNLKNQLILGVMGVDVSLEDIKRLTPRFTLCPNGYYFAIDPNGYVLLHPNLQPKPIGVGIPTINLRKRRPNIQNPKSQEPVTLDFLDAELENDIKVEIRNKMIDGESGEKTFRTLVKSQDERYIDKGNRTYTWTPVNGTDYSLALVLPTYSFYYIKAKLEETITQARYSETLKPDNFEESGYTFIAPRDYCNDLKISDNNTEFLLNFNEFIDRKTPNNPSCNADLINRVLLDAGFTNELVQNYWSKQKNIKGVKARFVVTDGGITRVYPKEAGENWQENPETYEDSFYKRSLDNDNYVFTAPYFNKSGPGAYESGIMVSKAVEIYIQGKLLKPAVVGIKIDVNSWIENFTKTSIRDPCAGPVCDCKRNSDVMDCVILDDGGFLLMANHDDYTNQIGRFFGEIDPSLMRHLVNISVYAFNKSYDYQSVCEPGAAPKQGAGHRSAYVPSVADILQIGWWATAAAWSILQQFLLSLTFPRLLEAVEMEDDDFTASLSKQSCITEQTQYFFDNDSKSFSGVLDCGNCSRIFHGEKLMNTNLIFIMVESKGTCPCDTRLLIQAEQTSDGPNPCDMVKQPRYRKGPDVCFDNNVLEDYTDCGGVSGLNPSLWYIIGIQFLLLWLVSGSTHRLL
Human α2δ-1 enriched membranes (2.5 μg) were incubated with 15 nM of radiolabeled [3H]-Gabapentin in assay buffer containing Hepes-KOH 10 mM, pH 7.4. NSB (non specific binding) was measured by adding 10 μM pregabalin. After 60 min incubation at 27° C., binding reaction was terminated by filtering through Multiscreen GF/C (Millipore) presoaked in 0.5% polyethyleneimine in Vacuum Manifold Station, followed by 3 washes with ice-cold filtration buffer containing 50 mM Tris-HCl, pH 7.4. Filter plates were dried at 60° C. for 1 hour and 30 μl of scintillation cocktail were added to each well before radioactivity reading. Readings were performed in a Trilux 1450 Microbeta radioactive counter (Perkin Elmer), i.e. Human α2δ-1 enriched membranes (2.5 μg) were incubated with 15 nM of radiolabeled [3H]-Gabapentin in assay buffer containing Hepes-KOH 10 mM, pH 7.4. NSB (non specific binding) was measured by adding 10 μM pregabalin. The binding of the test compound was measured at five different concentrations. After 60 min incubation at 27° C., binding reaction was terminated by filtering through Multiscreen GF/C (Millipore) presoaked in 0.5% polyethyleneimine in Vacuum Manifold Station, followed by 3 washes with ice-cold filtration buffer containing 50 mM Tris-HCl, pH 7.4. Filter plates were dried at 60° C. for 1 hour and 30 μl of scintillation cocktail were added to each well before radioactivity reading. Readings were performed in a Trilux 1450 Microbeta radioactive counter (Perkin Elmer).

Setting [2] is: transfected CHO-K1 cell membranes, 1 nM [3H]-DAMGO, read-out: Binding μ (Ki).
The mark [3] stands for this setting: human α2δ-1 enriched membranes, 15 nM [3H]-Gabapentin, read-out: Binding α2δ-1 (Ki).

T1 sequence (P35372 whole entry): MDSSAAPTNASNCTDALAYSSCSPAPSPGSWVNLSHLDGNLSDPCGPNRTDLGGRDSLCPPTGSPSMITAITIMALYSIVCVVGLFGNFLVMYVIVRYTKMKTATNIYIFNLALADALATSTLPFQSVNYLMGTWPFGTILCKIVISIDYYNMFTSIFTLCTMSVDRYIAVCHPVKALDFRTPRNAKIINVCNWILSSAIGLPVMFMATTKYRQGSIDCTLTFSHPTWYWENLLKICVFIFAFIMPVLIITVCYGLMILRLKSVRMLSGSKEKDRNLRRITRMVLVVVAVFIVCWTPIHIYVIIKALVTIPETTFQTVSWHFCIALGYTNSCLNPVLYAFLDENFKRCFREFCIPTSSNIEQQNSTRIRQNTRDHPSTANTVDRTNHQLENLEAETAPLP

For the compound `CNCCC(Oc1ccccc1-n1nc2c(N(C)C)nnc(C)c2c1C)c1ccccn1` (centres unmarked) [Example 18, N,N,3,4-tetramethyl-2-(2-(3-(methylamino)-1-(pyridin-2-yl)propoxy)phenyl)-2H-pyrazolo[3,4-d]pyridazin-7-amine], the Ki at human μ-opioid receptor (setting [2]) is greater than 500 nM; in experiment [1] (setting [3]), 500 to 5000 nM.
On the same counts, the results for `CNCCC(Oc1ccc(Br)cc1-n1nc2c(N(C)C)nnc(C)c2c1C)c1ccccc1` (centres unmarked) [Example 28, 2-(5-bromo-2-(3-(methylamino)-1-phenylpropoxy)phenyl)-N,N,3,4-tetramethyl-2H-pyrazolo[3,4-d]pyridazin-7-amine] are greater than 500 nM and 500 to 5000 nM.
In the case of `CNCC[C@H](Oc1ccccc1-n1nc2c(N(C)C)nnc(C)c2c1C)c1ccccc1` [Example 99, (S)-N,N,3,4-Tetramethyl-2-(2-(3-(methylamino)-1-phenylpropoxy)phenyl)-2H-pyrazolo[3,4-d]pyridazin-7-amine], the inhibition constant Ki on human μ-opioid receptor was 100 to 500 nM; in experiment [1], 500 to 5000 nM.
Regarding `Cc1nnc(N(C)C)c2nn(-c3ccccc3OCCC(N)c3ccccc3)c(C)c12` (centres unmarked) [Example 22, 2-(2-(3-amino-3-phenylpropoxy)phenyl)-N,N,3,4-tetramethyl-2H-pyrazolo[3,4-d]pyridazin-7-amine], the Ki on human μ-opioid receptor (setting [2]) was greater than 500 nM; in experiment [1] (setting [3]), 500 to 5000 nM.
In the case of `Cc1nnc(N(C)C)c2nn(-c3ccccc3O[C@H](c3ccccc3)[C@@H]3CNCCO3)c(C)c12` [Example 49, N,N,3,4-tetramethyl-2-(2-((R)-((S)-morpholin-2-yl)(phenyl)methoxy)phenyl)-2H-pyrazolo[3,4-d]pyridazin-7-amine], the Ki is greater than 500 nM at human μ-opioid receptor (setting [2]) and 500 to 5000 nM in experiment [1] (setting [3]).
For `CNCCC(Oc1cc(C(=O)N(C)C)ccc1-n1nc2c(N(C)C)nnc(C)c2c1C)c1ccccc1` (centres unmarked) [Example 95], the figures for the Ki (on human μ-opioid receptor (setting [2]); in experiment [1] (setting [3])) were greater than 500 nM and 500 to 5000 nM, respectively.
With `Cc1nnc(N(C)C)c2nn(-c3ccccc3OC(CCNCC3CC3)c3ccccc3)c(C)c12` (centres unmarked) [Example 20, 2-(2-(3-((cyclopropylmethyl)amino)-1-phenylpropoxy)phenyl)-N,N,3,4-tetramethyl-2H-pyrazolo[3,4-d]pyridazin-7-amine], the Ki on human μ-opioid receptor was 100 to 500 nM; in experiment [1], 500 to 5000 nM.
As to `CNCCC(Oc1cc(N2CCCC2=O)ccc1-n1nc2c(N(C)C)nnc(C)c2c1C)c1ccccc1` (centres unmarked) [Example 80, 1-(4-(7-(Dimethylamino)-3,4-dimethyl-2H-pyrazolo[3,4-d]pyridazin-2-yl)-3-(3-(methylamino)-1-phenylpropoxy)phenyl)pyrrolidin-2-one], the Ki on human μ-opioid receptor (setting [2]) was greater than 500 nM; in experiment [1] (setting [3]) it was 500 to 5000 nM.
For `CNCCC(Oc1ccccc1-n1nc2c(N(C)C)nnc(C)c2c1C)c1nccs1` (centres unmarked) [Example 33, N,N,3,4-tetramethyl-2-(2-(3-(methylamino)-1-(thiazol-2-yl)propoxy)phenyl)-2H-pyrazolo[3,4-d]pyridazin-7-amine], in that order: greater than 500 nM and 500 to 5000 nM.
Turning to `CNCCC(Oc1ccccc1-n1nc2c(N(C)C)nnc(C)c2c1C)c1cccc(O)c1` (centres unmarked) [Example 79, 3-(1-(2-(7-(Dimethylamino)-3,4-dimethyl-2H-pyrazolo[3,4-d]pyridazin-2-yl)phenoxy)-3-(methylamino)propyl)phenol], the results for the Ki (on human μ-opioid receptor; in experiment [1]) were 100 to 500 nM and 500 to 5000 nM, respectively.
`CNCC[C@@H](Oc1ccccc1-n1nc2c(N(C)C)nnc(C)c2c1C)c1cccc(F)c1` [Example 104, (R)-2-(2-(1-(3-fluorophenyl)-3-(methylamino)propoxy)phenyl)-N,N,3,4-tetramethyl-2H-pyrazolo[3,4-d]pyridazin-7-amine]: the Ki at human μ-opioid receptor is 100 to 500 nM; in experiment [1], 500 to 5000 nM.
On to `CNCCC(Oc1ccccc1-n1nc2c(N(C)C)nnc(C)c2c1C)c1cccs1` (centres unmarked) [Example 78, N,N,3,4-Tetramethyl-2-(2-(3-(methylamino)-1-(thiophen-2-yl)propoxy)phenyl)-2H-pyrazolo[3,4-d]pyridazin-7-amine], for which the Ki was 100 to 500 nM on human μ-opioid receptor and 500 to 5000 nM in experiment [1].
For `CNCCC(Oc1ccccc1-n1nc2c(N(C)CCN(C)C)nnc(C)c2c1C)c1ccccc1` (centres unmarked) [Example 62, N1-(3,4-dimethyl-2-(2-(3-(methylamino)-1-phenylpropoxy)phenyl)-2H-pyrazolo[3,4-d]pyridazin-7-yl)-N1,N2,N2-trimethylethane-1,2-diamine], the inhibition constant Ki on human μ-opioid receptor (setting [2]) is greater than 500 nM; in experiment [1] (setting [3]) it was 500 to 5000 nM.
Take `CNCCC(COC)Oc1ccccc1-n1nc2c(N(C)C)nnc(C)c2c1C` (centres unmarked) [Example 51, 2-(2-((1-methoxy-4-(methylamino)butan-2-yl)oxy)phenyl)-N,N,3,4-tetramethyl-2H-pyrazolo[3,4-d]pyridazin-7-amine]: the Ki was greater than 500 nM on human μ-opioid receptor (setting [2]) and greater than 5000 nM in experiment [1] (setting [3]).
For `CNCCC(Oc1ccc(N2CCCC2=O)cc1-n1nc2c(N(C)C)nnc(C)c2c1C)c1ccccc1` (centres unmarked) [Example 81, 1-(3-(7-(dimethylamino)-3,4-dimethyl-2H-pyrazolo[3,4-d]pyridazin-2-yl)-4-(3-(methylamino)-1-phenylpropoxy)phenyl)pyrrolidin-2-one], in that order: greater than 500 nM and greater than 5000 nM.
As to `CNCCC(Oc1ccccc1-n1nc2c(Nc3ccccc3)nnc(C)c2c1C)c1ccccc1` (centres unmarked) [Example 9, 3,4-dimethyl-2-(2-(3-(methylamino)-1-phenylpropoxy)phenyl)-N-phenyl-2H-pyrazolo[3,4-d]pyridazin-7-amine], the values for the Ki (on human μ-opioid receptor; in experiment [1]) were 100 to 500 nM and greater than 5000 nM, respectively.
For the compound `Cc1nnc(N(C)C)c2nn(-c3ccccc3OCC(N)c3ccccc3)c(C)c12` (centres unmarked) [Example 17, 2-(2-(2-amino-2-phenylethoxy)phenyl)-N,N,3,4-tetramethyl-2H-pyrazolo[3,4-d]pyridazin-7-amine], the inhibition constant Ki was greater than 500 nM at human μ-opioid receptor (setting [2]) and 500 to 5000 nM in experiment [1] (setting [3]).
On to `CNCCC(Oc1ccccc1-n1nc2c(N(C)C)nnc(C)c2c1C)c1ccccc1F` (centres unmarked) [Example 41, 2-(2-(1-(2-fluorophenyl)-3-(methylamino)propoxy)phenyl)-N,N,3,4-tetramethyl-2H-pyrazolo[3,4-d]pyridazin-7-amine], for which the inhibition constant Ki on human μ-opioid receptor (setting [2]) was greater than 500 nM; in experiment [1] (setting [3]) it was 500 to 5000 nM.
As for `CNCCC(Oc1ccccc1-n1nc2c(NC)nnc(C)c2c1C)c1ccccc1` (centres unmarked) [Example 68, N,3,4-Trimethyl-2-(2-(3-(methylamino)-1-phenylpropoxy)phenyl)-2H-pyrazolo[3,4-d]pyridazin-7-amine], the inhibition constant Ki at human μ-opioid receptor (setting [2]) was greater than 500 nM; in experiment [1] (setting [3]), 500 to 5000 nM.
For `CNCCC(Oc1ccccc1-n1nc2c(N(C)C)nnc(C)c2c1C)c1cccnc1` (centres unmarked) [Example 21, N,N,3,4-tetramethyl-2-(2-(3-(methylamino)-1-(pyridin-3-yl)propoxy)phenyl)-2H-pyrazolo[3,4-d]pyridazin-7-amine], the Ki on human μ-opioid receptor (setting [2]) was greater than 500 nM; in experiment [1] (setting [3]), 500 to 5000 nM.
On the same counts, the results for `CNCCC(Oc1ccccc1-n1nc2c(N3CC(OC)C3)nnc(C)c2c1C)c1ccccc1` (centres unmarked) [Example 35, 3-(2-(7-(3-methoxyazetidin-1-yl)-3,4-dimethyl-2H-pyrazolo[3,4-d]pyridazin-2-yl)phenoxy)-N-methyl-3-phenylpropan-1-amine] are greater than 500 nM and 500 to 5000 nM.
In the case of `CCCNCCC(Oc1ccccc1-n1nc2c(N(C)C)nnc(C)c2c1C)c1ccccc1` (centres unmarked) [Example 24, N,N,3,4-tetramethyl-2-(2-(1-phenyl-3-(propylamino)propoxy)phenyl)-2H-pyrazolo[3,4-d]pyridazin-7-amine], the Ki on human μ-opioid receptor was in the range of 100 to 500 nM; in experiment [1] it was 500 to 5000 nM.

By Ki is commonly meant a measure of affinity in units of concentration, obtained from inhibition or displacement.
